The text below walks through data of patent US11834401B2, “Treating and preventing diseases by modulating cell mechanics” (THE JOHNS HOPKINS UNIVERSITY, priority 2013, dated 2023).

For assay [1], the system named is myosin IIA (phosphor-Ser1943). The experiment in a line: Western blot of phospho-myosin IIA. The class given is cell-based, human. The note with it: HPDE or ASPC-1 cells. As for the experimental part:
Pellet was resuspended in 100 μl lysis buffer minus Triton X-100, and both pellet and supernatant fractions were heated to 100° C. for 3 min with RNaseA. Samples were incubated at 37° C. for 30 min and then heated to 100° C. in sample buffer for 5 min. Samples were loaded on a 15% SDS-polyacrylamide gel. Western blot analyses of phospho-myosin IIA was performed on whole cell lysates of cells treated as above in lysate buffer with 10 mM NaF.

The subject of assay [2] is ASPC-1 cells. The experiment in a line: Transwell migration assay. It is filed as cell-based, human. The settings on record: 24 hr transwell. The procedure:
Cells were starved with serum-reduced media for 24 hr, harvested from flasks with trypsin/EDTA, washed with media containing 1% FBS, and resuspended at cell density of 2-5×10^5 cells/ml. 0.2 ml of cells were placed in the upper chamber of transwell (BD Biosciences), with 20% FBS-containing media in the lower well and incubated at 37° C. for 24 hr. Both sides of the transwell contained 4-HAP at the appropriate concentration, with final DMSO concentration at 0.0025%. The transwells were MeOH-fixed and stained with 0.5% crystal violet for 20 min, followed by counting from six random microscopic fields.

Assay [3] deals with Panc10.05 tissue spheroids. The experiment in a line: Tissue spheroid dissemination and cortical actin structure. It is filed as cell-based, human. The procedure:
Tissue spheroids were grown by plating Panc10.05 cells on a drop of Matrigel (Becton-Dickinson) in an 8-well slide chamber (6,500 cells per well) and grown in RPMI 1640 media (2% serum, 2% matrigel, and 10 ng/ml EGF). Spheroids were grown for 14 days with regular media changes, then aspirated off the surface of the matrigel, washed with ice-cold PBS with mild centrifugation ([…], 5 min). For all 2D spreading assays, spheroids were then plated on 50 µg/ml collagen-coated 8-well coverslips (MatTek) and incubated for 48 hrs in complete PANC media with 500 nM 4-HAP or PBS control. For 3D invasion assays, spheroids were resuspended in a 1.5 mg/ml collagen solution (Life Technologies) and then plated in 8-well chambered coverslips. […] All spheroid samples were fixed in 4% paraformaldehyde for 15 min at 25° C. and permeabilized in 0.1% Triton X-100 for 15 min at 25° C. The actin cytoskeleton was visualized with rhodamine-phalloidin ([…]) for 30 min. Two-dimensional spreading was visualized with Olympus Spinning disk microscope (40× oil objective, 1.30NA) or Nikon-NSIM (100× objective, 1.4NA) with an Andor EMCCD camera controlled by NIS-Elements software. Three-dimensional invasion through collagen was visualized with an Olympus Spinning Disk microscope (20× air, 0.4NA).
Quantification of 2D spheroids plated on a thin layer of collagen was performed using a custom-designed Matlab script (Mathworks, Natick, Mass.). A maximum intensity projection of 20 z-slices was extracted from each of the images and converted to 16-bit grayscale before enhancing the pixel intensity (Matlab command: histeq). The enhanced image was then segmented into foreground and background using the Chan-Vese method (activecountour), followed by filtering of small regions (bwareaopen), and morphological erosion (imerode). The boundary from this object was then obtained (bwboundary) and average background intensity was subtracted. This method was used for more than 80% of the images. […] This option allowed the user to select a region of interest surrounding the outer edge of the spheroid (roipoly). Anything outside of this boundary was masked and subsequently not considered (regionfill). Following this, a similar binarization/background subtraction regime was implemented on the unmasked region and the boundary was traced.
For each point along the boundary, a line perpendicular to the edge was computed and the intensity along this line was used to linearize the cortex. The resultant matrix was converted into a grayscale image. The Hough Transform was used to determine the continuity of the actin belt along the edge of the cortex. Linearized cortex images were binarized using a threshold chosen to best differentiate belt from non-belt for each set of images (imbinarize), followed by filtering of small regions (bwareaopen), and morphological dilation (imdilate). The Hough Transform was performed on this image (hough), and Hough peaks and lines identified (houghpeaks, houghlines). These were used to create a continuity score defined by (E Hough line lengths)/(number of lines+length of image). In this metric, higher scores indicate a more continuous actin belt at the cortex. Additionally, we computed: a coarseness index of the cortex (std2) to describe actin distribution, the percentage of white pixels of the binarized image to characterize actin belt thickness, and the ratio of white pixels to gray pixels (greater than 0.15) to describe the distribution of fluorescence.

The subject of assay [4] is AsPC-1 cells. Briefly: Hemi-splenectomy PDAC liver metastasis model. The settings on record: 5 mg/ml, 200 μl IP every other day. The class given is in vivo, athymic NCr-nu/nu mice. As for the experimental part:
Therefore, the inventors tested 4-HAP in a mouse model for PDAC metastasis. Hemi-splenectomies with 4-HAP pre-treated metastatic AsPC-1 cells were performed on nude mice which were subsequently divided into three groups: control, PBS (200 μl PBS IP injections, every other day), and 4-HAP (5 mg/ml, 200 μl IP injections, every other day). Mice were harvested at 5-weeks post-surgery, when the first mouse expired. Metastasis to the liver was observed and quantified by an in-house Matlab script that determined surface area tumor coverage.
Hemi-splenectomies were performed on athymic NCr-nu/nu mice (Charles River Laboratories) with low passage AsPC-1 cells as previously described. In short, laparotomies were performed on anesthetized mice in which the upper pole of a divided spleen was reinserted into the peritoneum while 1×10^7 AsPC-1 cells prepared in phosphate buffered saline were injected into the lower splenic pole, chased by an equal volume of phosphate buffered saline. The pancreas and splenic vessels were ligated and the peritoneum was closed.
AsPC-1 cells were pretreated with 50 μM 4-HAP or PBS 24 hr prior to injection during hemisplenectomies. […]
Quantifications of mouse livers were performed using a custom-designed Matlab script. […] The percent coverage of tumor was calculated.

Structures are written as SMILES.

In the case of `CC(=O)c1ccc(O)cc1` [4-HAP, 4-hydroxyacetophenone], the “myosin IIA phosphorylation (phosphor-Ser1943)” value in assay [1] is “little effect on myosin IIA phosphorylation”. Moreover, the in vitro migration entry with ASPC-1 cells [2] was “dose-dependent decrease”. Moreover, the dissemination from spheroids result in assay [3] (NMIIA knockdown, 3D collagen I, 24 hours) is “decreased”; in assay [3] (control knockdown, 3D collagen I, 24 hours), “decreased”; in assay [3] (myosin IIC-depleted spheroids), “no effect was observed”. In addition, the “actin band continuity score” value in assay [3] (control spheroids) was “decreased upon treatment with 4-HAP”; in assay [3] (shIIA spheroids, p=0.01), “increased significantly”. Also, the “cortex coverage by actin bands” value in assay [3] (control spheroids) is recorded as “decreased cortex coverage”; in assay [3] (myo IIA knockdowns), “the coverage increased”; in assay [3] (myo IIC knockdowns), “unaffected by the treatment of 4-HAP”. Moreover, the “increase in median percentage staining of actin at tissue edge” value in assay [3] (myosin IIA knockdown spheroids, 2D) amounted to 2 fold. For the same molecule, in assay [3] (when myosin IIC is present), the actin belt formation result was “Actin belts are formed”. For the same molecule, in the assay on AsPC-1 cells [4], the “tumor formation (liver weights and tumor coverage)” value is listed as “reduction in tumor formation”. In addition, the “reduction in surface tumor load (liver tumor coverage)” value in the assay on AsPC-1 cells [4] (5-weeks post-surgery) was determined as 50%.
